Data from US4459290A, “C-23-Modified derivatives of OMT, pharmaceutical compositions and method of use” (priority 1982, dated 1984).
≈ marks a conversion by molar mass, not a printed value. Where two headings read alike, the source gives them in different places.

What was measured:
Escherichia coli EC14 = assay: MIC, standard agar-dilution assay (Table V); assay type: cell-based; details: Escherichia coli; E. coli EC14; agar dilution; read-out: MIC
Summary of the method: (§1)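 Growth inhibition in liquid medium, in a routine microtiter broth-dilution series, gave the MIC against staphylococci and pasteurellae; the gram-negative enteric strain was tested by conventional agar dilution instead.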

Escherichia coli N10 = assay: MIC, standard agar-dilution assay (Table V); assay type: cell-based; details: Escherichia coli
Summary of the method: as §1

[1] = system: Klebsiella pneumoniae KAE; assay: MIC, standard agar-dilution assay (Table V); assay type: cell-based; details: Klebsiella pneumoniae
Summary of the method: as §1

[2] = system: Klebsiella pneumoniae X26; assay: MIC, standard agar-dilution assay (Table V); assay type: cell-based; details: Klebsiella pneumoniae
Experimental: (§2) Especially noteworthy is the improved activity against gram-negative bacteria for several derivatives when compared to the activity of OMT. […] The MIC's in Tables V and VI were determined by standard agar-dilution assays. The MIC's in Table VII were obtained using a conventional broth-dilution microtiter test.

Shigella sonnei N9 = assay: MIC, standard agar-dilution assay (Table V); assay type: cell-based
Summary of the method: as §1

[3] = system: Staphylococcus aureus S13E; assay: MIC, standard agar-dilution assay (Table V); assay type: cell-based; details: Staphylococcus aureus, S13E
Experimental: as §2

[4] = system: Staphylococcus aureus V41; assay: MIC, standard agar-dilution assay (Table V); assay type: cell-based; details: Staphylococcus aureus, V41
Experimental: as §2

[5] = system: Staphylococcus aureus X1.1; assay: MIC, standard agar-dilution assay (Table V); assay type: cell-based; details: Staphylococcus aureus
Experimental: as §2

[6] = system: Staphylococcus aureus X400; assay: MIC, standard agar-dilution assay (Table V); assay type: cell-based; details: Staphylococcus aureus, X400
Experimental: as §2

[7] = system: Staphylococcus epidermidis EPI1; assay: MIC, standard agar-dilution assay (Table V); assay type: cell-based; details: Staphylococcus epidermidis
Experimental: as §2

[8] = system: Staphylococcus epidermidis EPI2; assay: MIC, standard agar-dilution assay (Table V); assay type: cell-based; details: Staphylococcus epidermidis, EPI2
Experimental: as §2

Streptococcus Group 9960 = assay: MIC, standard agar-dilution assay (Table V); assay type: cell-based; details: GROUP9960
Experimental: as §2

[9] = system: Streptococcus Group D X66; assay: MIC, standard agar-dilution assay (Table V); assay type: cell-based
Experimental: as §2

[10] = system: Citrobacter freundii CF17; assay: MIC, standard agar-dilution assay (Table VI); assay type: cell-based
Experimental: as §2

[11] = system: Enterobacter aerogenes C32; assay: MIC, standard agar-dilution assay (Table VI); assay type: cell-based; details: Klebsiella aerogenes, C32
Experimental: as §2

Enterobacter cloacae EB5 = assay: MIC, standard agar-dilution assay (Table VI); assay type: cell-based
Experimental: as §2

[12] = system: Klebsiella pneumoniae X68; assay: MIC, standard agar-dilution assay (Table VI); assay type: cell-based; details: X68
Experimental: as §2

Proteus inconstans PR33 = assay: MIC, standard agar-dilution assay (Table VI); assay type: cell-based; details: Providencia alcalifaciens
Experimental: as §2

Proteus rettgeri PR7 = assay: MIC, standard agar-dilution assay (Table VI); assay type: cell-based; details: Providencia rettgeri
Experimental: as §2

[13] = system: Pseudomonas aeruginosa Ps18; assay: MIC, standard agar-dilution assay (Table VI); assay type: cell-based
Experimental: as §2

[14] = system: Pseudomonas aeruginosa X239; assay: MIC, standard agar-dilution assay (Table VI); assay type: cell-based; details: X239
Experimental: as §2

[15] = system: Salmonella heidelberg X514; assay: MIC, standard agar-dilution assay (Table VI); assay type: cell-based; details: Salmonella enterica, X514
Experimental: as §2

Salmonella typhi 1335 = assay: MIC, standard agar-dilution assay (Table VI); assay type: cell-based; details: Salmonella enterica
Experimental: as §2

Mycoplasma gallisepticum = assay: MIC, broth-dilution microtiter test (Table VII); assay type: cell-based; details: Mycoplasmoides gallisepticum; M. gallisepticum; broth-dilution microtiter; read-out: MIC
Experimental: as §2

Mycoplasma hyorhinis = assay: MIC, broth-dilution microtiter test (Table VII); assay type: cell-based; details: M. hyorhinis; broth-dilution microtiter; read-out: MIC
Experimental: as §2

Mycoplasma synoviae = assay: MIC, broth-dilution microtiter test (Table VII); assay type: cell-based; details: Mycoplasmopsis synoviae; M. synoviae; broth-dilution microtiter; read-out: MIC
Experimental: as §2

[16] = system: Pasteurella hemolytica 22C; assay: MIC, broth-dilution microtiter test (Table VII); assay type: cell-based; details: Pasteurella, P. hemolytica 22C, read-out: MIC
Summary of the method: (§3)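 Each MIC derives from a dilution series, either on solid agar (Enterobacter aerogenes) or in liquid broth within microtiter plates (staphylococcal and Pasteurella strains).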

[17] = system: Pasteurella hemolytica 23C; assay: MIC, broth-dilution microtiter test (Table VII); assay type: cell-based; details: Pasteurella, P. hemolytica 23C, read-out: MIC
Summary of the method: as §3

[18] = system: Pasteurella hemolytica 41D; assay: MIC, broth-dilution microtiter test (Table VII); assay type: cell-based; details: Pasteurella, P. hemolytica 41D, read-out: MIC
Summary of the method: as §3

[19] = system: Pasteurella multocida 17E; assay: MIC, broth-dilution microtiter test (Table VII); assay type: cell-based; details: Pasteurella multocida; P. multocida 17E, bovine isolate; broth-dilution microtiter; read-out: MIC
Summary of the method: as §1

[20] = system: Pasteurella multocida 22A; assay: MIC, broth-dilution microtiter test (Table VII); assay type: cell-based; details: Pasteurella multocida; P. multocida 22A; broth-dilution microtiter; read-out: MIC
Summary of the method: as §1

[21] = system: Pasteurella multocida 40G; assay: MIC, broth-dilution microtiter test (Table VII); assay type: cell-based; details: Pasteurella multocida; P. multocida 40G; broth-dilution microtiter; read-out: MIC
Summary of the method: as §1

[22] = system: Pasteurella multocida 60A; assay: MIC, broth-dilution microtiter test (Table VII); assay type: cell-based; details: Pasteurella multocida; P. multocida 60A, avian isolate; broth-dilution microtiter; read-out: MIC
Summary of the method: as §1

[23] = system: Pasteurella multocida 68C; assay: MIC, broth-dilution microtiter test (Table VII); assay type: cell-based; details: Pasteurella multocida; P. multocida 68C; broth-dilution microtiter; read-out: MIC
Summary of the method: as §1

Staphylococcus aureus = assay: MIC, broth-dilution microtiter test (Table VII); assay type: cell-based; details: Staphylococcus aureus; S. aureus; broth-dilution microtiter; read-out: MIC
Summary of the method: as §1

Streptococcus sp. 80 = assay: MIC, broth-dilution microtiter test (Table VII); assay type: cell-based; details: Streptococcus sp. 80; broth-dilution microtiter; read-out: MIC
Experimental: as §2

[24] = system: Streptococcus pyogenes C203; assay: ED50 in mice experimentally infected with S. pyogenes C203 (Table VIII); assay type: in vivo
Experimental: The C-23 modified derivatives of OMT of this invention have shown in vivo antimicrobial activity against experimental infections. When two doses of test compound were administered to mice experimentally infected with a gram-positive bacterium, S. pyogenes C203, the activity observed was measured as an ED50 value [effective dose in mg/kg to protect 50% of the test animals: see Warren Wick, et al., J. Bacteriol. 81, 233-235 (1961)].

[25] = C203, sc, mice, subcutaneous, doses given 1 and 4 hours postinfection, read-out: ED50, Subcutaneous

Row | SMILES | MIC (Escherichia coli EC14) | MIC (Shigella sonnei N9) | MIC [3] | MIC [4] | MIC [6] | MIC [8] | MIC [11] | MIC [12] | MIC [14] | MIC [15] | MIC (Salmonella typhi 1335) | MIC (Mycoplasma gallisepticum) | MIC (Mycoplasma hyorhinis) | MIC (Mycoplasma synoviae) | MIC [16] | MIC [17] | MIC [18] | MIC [19] | MIC [20] | MIC [21] | further results
1 | CCC1OC(=O)CC(O)C(C)C(OC2OC(C)C(O)C(N(C)C)C2O)C(CC=O)CC(C)C(=O)C=CC(C)=CC1CSC(C)=O (stereo not shown) [Compound 7, 23-Deoxy-23-(acetyl)thio-OMT] | 64 µg/mL (≈ 97.6 µM) | 64 µg/mL (≈ 97.6 µM) | 0.125 µg/mL (≈ 0.191 µM) | 0.25 µg/mL (≈ 0.381 µM) | 0.25 µg/mL (≈ 0.381 µM) | 0.125 µg/mL (≈ 0.191 µM) | > 128 µg/mL | > 128 µg/mL | > 128 µg/mL | > 128 µg/mL | > 128 µg/mL | 0.19 µg/mL (≈ 0.29 µM) | 6.25 µg/mL (≈ 9.53 µM) | ≤ 0.05 µg/mL | 6.25 µg/mL (≈ 9.53 µM) | 6.25 µg/mL (≈ 9.53 µM) | 6.25 µg/mL (≈ 9.53 µM) | 3.12 µg/mL (≈ 4.76 µM) | 1.56 µg/mL (≈ 2.38 µM) | 0.78 µg/mL (≈ 1.19 µM) | MIC (Escherichia coli N10; N10): 64 µg/mL (≈ 97.6 µM); MIC [1]: > 128 µg/mL; MIC ([2]; X26): 4 µg/mL (≈ 6.1 µM); MIC ([5]; X1.1): 0.25 µg/mL (≈ 0.381 µM); MIC ([7]; EPI1): 0.125 µg/mL (≈ 0.191 µM); MIC (Streptococcus Group 9960): 0.25 µg/mL (≈ 0.381 µM); MIC ([9]; Streptococcus Group D X66, agar dilution, read-out: MIC): 0.5 µg/mL (≈ 0.762 µM); MIC ([10]; CF17): > 128 µg/mL; MIC (Enterobacter cloacae EB5; EB5): > 128 µg/mL; MIC (Proteus inconstans PR33; PR33): > 128 µg/mL; MIC (Proteus rettgeri PR7; PR7): > 128 µg/mL; MIC ([13]; PS18): > 128 µg/mL; MIC [22]: 3.12 µg/mL (≈ 4.76 µM); MIC [23]: 1.56 µg/mL (≈ 2.38 µM); MIC (Staphylococcus aureus): 0.39 µg/mL (≈ 0.595 µM); MIC (Streptococcus sp. 80): 0.39 µg/mL (≈ 0.595 µM); ED50 ([24]; C203, po, read-out: ED50, Oral): > 100 mg/kg; ED50 [24, 25]: 21.4 mg/kg
2 | CCC1OC(=O)CC(O)C(C)C(OC2OC(C)C(O)C(N(C)C)C2O)C(CC=O)CC(C)C(=O)C=CC(C)=CC1CN=[N+]=[N-] (stereo not shown) [Compound 8, 23-Deoxy-23-azido-OMT] | 32 µg/mL (≈ 51.4 µM) | 32 µg/mL (≈ 51.4 µM) | 0.25 µg/mL (≈ 0.401 µM) | 0.25 µg/mL (≈ 0.401 µM) | 0.25 µg/mL (≈ 0.401 µM) | 0.25 µg/mL (≈ 0.401 µM) | 64 µg/mL (≈ 103 µM) | 64 µg/mL (≈ 103 µM) | 64 µg/mL (≈ 103 µM) | 64 µg/mL (≈ 103 µM) | 64 µg/mL (≈ 103 µM) | 0.39 µg/mL (≈ 0.626 µM) | 3.12 µg/mL (≈ 5.01 µM) | 0.39 µg/mL (≈ 0.626 µM) | 6.25 µg/mL (≈ 10 µM) | 6.25 µg/mL (≈ 10 µM) | 6.25 µg/mL (≈ 10 µM) | 1.56 µg/mL (≈ 2.5 µM) | 1.56 µg/mL (≈ 2.5 µM) | 1.56 µg/mL (≈ 2.5 µM) | MIC (Escherichia coli N10; E. coli N10, agar dilution, read-out: MIC): 32 µg/mL (≈ 51.4 µM); MIC ([1]; K. pneumoniae KAE, agar dilution, read-out: MIC): > 128 µg/mL; MIC ([2]; K. pneumoniae X26, agar dilution, read-out: MIC): 4 µg/mL (≈ 6.42 µM); MIC ([5]; S. aureus X1.1, agar dilution, read-out: MIC): 0.125 µg/mL (≈ 0.201 µM); MIC ([7]; S. epidermidis EPI1, agar dilution, read-out: MIC): 0.125 µg/mL (≈ 0.201 µM); MIC (Streptococcus Group 9960; Streptococcus Group 9960, agar dilution, read-out: MIC): 0.5 µg/mL (≈ 0.803 µM); MIC [9]: 0.25 µg/mL (≈ 0.401 µM); MIC ([10]; C. freundii CF17, agar dilution, read-out: MIC): > 128 µg/mL; MIC (Enterobacter cloacae EB5; E. cloacae EB5, agar dilution, read-out: MIC): > 128 µg/mL; MIC (Proteus inconstans PR33; P. inconstans PR33, agar dilution, read-out: MIC): > 128 µg/mL; MIC (Proteus rettgeri PR7; P. rettgeri PR7, agar dilution, read-out: MIC): 32 µg/mL (≈ 51.4 µM); MIC ([13]; P. aeruginosa Ps18, agar dilution, read-out: MIC): 32 µg/mL (≈ 51.4 µM); MIC [22]: 3.12 µg/mL (≈ 5.01 µM); MIC [23]: 1.56 µg/mL (≈ 2.5 µM); MIC (Staphylococcus aureus): ≤ 0.78 µg/mL; MIC (Streptococcus sp. 80): ≤ 0.78 µg/mL; ED50 ([24]; C203, po, read-out: ED50, Oral): > 100 mg/kg; ED50 [24, 25]: 6.3 mg/kg
